Data published in patent US20240190865A1, “T-TYPE CALCIUM CHANNEL ANTAGONISTS AND USES THEREOF” (THE BOARD OF TRUSTEES OF THE LELAND STANFORD JUNIOR …, priority 2021, published 2024).

The compounds below were run against Cav3.2 (Homo sapiens (Human), UniProt O95180) (assay: In vitro patch clamp assay (SyncroPatch 384PE)). Conditions: HEK293 cells.
Assay type: cell-based
Protocol: Patch clamp assays were performed at Charles River. HEK293 cells were cultured in Dulbecco's Modified Eagle Medium/Nutrient Mixture F-12 (D-MEM/F-12) supplemented with 10% fetal bovine serum, 100 U/mL penicillin G sodium, 100 μg/mL streptomycin sulfate and 500 μg/mL G418. Before testing, cells in culture dishes were washed twice with Hank's Balanced Salt Solution, treated with Accutase™ and re-suspended in the culture media (˜20×10^6 cells in 20 mL). Cells in suspension were allowed to recover for 10 minutes in tissue culture incubator set at 37° C. in a humidified 95% air: 5% CO2 atmosphere. Immediately before use in the SyncroPatch 384PE system (SP384PE), the cells were washed twice in extracellular buffer (HB-PS) to remove the culture medium and re-suspended in 20 mL of HB-PS. Extracellular buffer was loaded into the wells of Nanion 384-well Patch Clamp (NPC-384, 4×M) chip (60 μL per well). Then, cell suspension was pipetted into the wells (20 μL per well) of the chip. After establishment of the whole-cell configuration, membrane currents were recorded using patch clamp amplifier in the SP384PE system.

Sequence of Cav3.2 (O95180 whole entry): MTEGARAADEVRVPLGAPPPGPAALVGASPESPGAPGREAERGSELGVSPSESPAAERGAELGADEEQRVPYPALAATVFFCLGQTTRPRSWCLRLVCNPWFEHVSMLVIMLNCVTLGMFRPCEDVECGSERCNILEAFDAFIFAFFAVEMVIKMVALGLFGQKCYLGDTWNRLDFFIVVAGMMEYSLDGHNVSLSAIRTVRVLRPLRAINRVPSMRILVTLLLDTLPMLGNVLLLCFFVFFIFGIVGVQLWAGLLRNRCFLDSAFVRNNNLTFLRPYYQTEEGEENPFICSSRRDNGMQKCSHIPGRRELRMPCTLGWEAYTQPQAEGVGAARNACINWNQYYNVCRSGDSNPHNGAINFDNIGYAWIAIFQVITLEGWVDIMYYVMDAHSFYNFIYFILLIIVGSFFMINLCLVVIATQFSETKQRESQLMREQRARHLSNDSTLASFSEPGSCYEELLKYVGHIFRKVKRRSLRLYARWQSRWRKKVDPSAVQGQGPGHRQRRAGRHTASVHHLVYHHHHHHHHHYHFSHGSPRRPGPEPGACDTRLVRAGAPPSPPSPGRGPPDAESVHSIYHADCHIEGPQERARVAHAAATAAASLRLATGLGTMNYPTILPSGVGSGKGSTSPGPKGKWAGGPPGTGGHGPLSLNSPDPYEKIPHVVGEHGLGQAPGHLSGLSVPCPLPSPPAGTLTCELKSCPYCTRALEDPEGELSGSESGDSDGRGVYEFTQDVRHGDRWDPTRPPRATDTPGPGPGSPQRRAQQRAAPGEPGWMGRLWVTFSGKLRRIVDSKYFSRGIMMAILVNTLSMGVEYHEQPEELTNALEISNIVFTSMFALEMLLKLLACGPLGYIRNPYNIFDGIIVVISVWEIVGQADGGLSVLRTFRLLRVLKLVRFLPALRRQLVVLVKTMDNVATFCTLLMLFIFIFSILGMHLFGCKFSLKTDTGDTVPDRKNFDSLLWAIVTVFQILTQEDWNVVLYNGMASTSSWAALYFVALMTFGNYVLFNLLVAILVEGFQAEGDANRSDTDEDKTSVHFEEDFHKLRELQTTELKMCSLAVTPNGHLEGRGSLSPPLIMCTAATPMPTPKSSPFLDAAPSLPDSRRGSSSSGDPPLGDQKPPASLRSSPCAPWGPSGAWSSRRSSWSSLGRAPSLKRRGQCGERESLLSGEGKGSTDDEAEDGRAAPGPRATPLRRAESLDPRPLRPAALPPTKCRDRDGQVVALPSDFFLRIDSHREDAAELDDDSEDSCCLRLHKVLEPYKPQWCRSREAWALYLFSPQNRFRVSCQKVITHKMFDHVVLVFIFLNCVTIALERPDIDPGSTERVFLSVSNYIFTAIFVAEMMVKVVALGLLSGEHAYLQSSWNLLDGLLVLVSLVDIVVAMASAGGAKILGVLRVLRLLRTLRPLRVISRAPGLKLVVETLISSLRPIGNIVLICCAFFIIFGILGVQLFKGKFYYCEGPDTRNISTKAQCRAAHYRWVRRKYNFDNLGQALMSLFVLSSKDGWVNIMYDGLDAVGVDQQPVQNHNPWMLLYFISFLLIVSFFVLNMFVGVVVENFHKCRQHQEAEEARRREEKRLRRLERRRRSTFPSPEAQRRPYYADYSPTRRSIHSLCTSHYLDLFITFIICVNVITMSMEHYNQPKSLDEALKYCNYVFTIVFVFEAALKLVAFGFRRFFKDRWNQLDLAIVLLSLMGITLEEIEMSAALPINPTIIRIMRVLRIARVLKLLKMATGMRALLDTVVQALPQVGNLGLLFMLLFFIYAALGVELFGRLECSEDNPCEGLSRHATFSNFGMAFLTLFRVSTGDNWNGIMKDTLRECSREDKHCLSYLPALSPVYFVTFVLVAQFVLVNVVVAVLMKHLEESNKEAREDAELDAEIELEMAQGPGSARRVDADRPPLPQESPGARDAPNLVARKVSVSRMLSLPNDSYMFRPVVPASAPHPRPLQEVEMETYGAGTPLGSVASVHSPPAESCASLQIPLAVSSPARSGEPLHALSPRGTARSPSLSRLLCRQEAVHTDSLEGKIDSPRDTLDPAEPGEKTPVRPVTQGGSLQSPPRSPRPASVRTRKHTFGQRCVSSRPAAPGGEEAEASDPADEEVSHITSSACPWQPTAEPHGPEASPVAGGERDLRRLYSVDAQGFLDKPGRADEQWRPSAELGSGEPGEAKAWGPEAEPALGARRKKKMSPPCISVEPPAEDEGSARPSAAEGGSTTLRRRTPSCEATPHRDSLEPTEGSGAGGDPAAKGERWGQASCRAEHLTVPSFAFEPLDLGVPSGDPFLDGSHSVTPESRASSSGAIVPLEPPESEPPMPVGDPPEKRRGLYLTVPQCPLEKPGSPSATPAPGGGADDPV

First: C[C@@H](NC(=O)Cc1ccc(C2(C(F)(F)F)CC2)s1)c1cc2cnn(CC(F)(F)F)c2cn1 [Example 17, (R)—N-(1-(1-(2,2,2-trifluoroethyl)-1H-pyrazolo[3,4-c]pyridin-5-yl)ethyl)-2-(5-(1-(trifluoromethyl)cyclopropyl)thiophen-2-yl)acetamide]
Second: C[C@@H](NC(=O)Cc1ccc(C2(C(F)(F)F)CC2)cc1)c1cc2cnn(CC(F)(F)F)c2cn1 [Example 44, (R)—N-(1-(1-(2,2,2-trifluoroethyl)-1H-pyrazolo[3,4-c]pyridin-5-yl)ethyl)-2-(4-(1-(trifluoromethyl)cyclopropyl)phenyl)acetamide]
The IC50 of the first is 4.1-fold higher: 292 nM for the first, 71 nM for the second. The second is the more potent here.

First: C[C@@H](NC(=O)Cc1ccc(C(C)(F)F)c(Cl)c1)c1cc2cnn(CC(F)(F)F)c2cn1 [Example 37, (R)-2-(3-chloro-4-(1,1-difluoroethyl)phenyl)-N-(1-(1-(2,2,2-trifluoroethyl)-1H-pyrazolo[3,4-c]pyridin-5-yl)ethyl)acetamide]
Second: C[C@@H](NC(=O)Cc1ccc(C(F)(F)F)c(F)c1)c1cc2cnn(CC(F)(F)F)c2cn1 [Example 42, (R)-2-(3-fluoro-4-(trifluoromethyl)phenyl)-N-(1-(1-(2,2,2-trifluoroethyl)-1H-pyrazolo[3,4-c]pyridin-5-yl)ethyl)acetamide]
The IC50 of the first is 4.7-fold lower: 84 nM for the first, 394 nM for the second.

Going from `C[C@@H](NC(=O)Cc1ccc2c(c1)OC(F)(F)O2)c1cc2cnn(CC(F)(F)F)c2cn1` [Example 48, (R)-2-(2,2-difluorobenzo[d][1,3]dioxol-5-yl)-N-(1-(1-(2,2,2-trifluoroethyl)-1H-pyrazolo[3,4-c]pyridin-5-yl)ethyl)acetamide] to `Cc1nc2cc(CC(=O)N[C@H](C)c3cc4cnn(CC(F)(F)F)c4cn3)ccc2n1C` [Example 53, (R)-2-(1,2-dimethyl-1H-benzo[d]imidazol-5-yl)-N-(1-(1-(2,2,2-trifluoroethyl)-1H-pyrazolo[3,4-c]pyridin-5-yl)ethyl)acetamide], the IC50 rises from 260 nM to 919 nM (3.5-fold).

First: CC(C)c1ccc(CC(=O)N[C@H](C)c2cc3cnn(C)c3cn2)cc1 [Example 1, (R)-2-(4-isopropylphenyl)-N-(1-(1-methyl-1H-pyrazolo[3,4-c]pyridin-5-yl)ethyl)acetamide]
Second: CC(C)c1ccc(CC(=O)N[C@H](C)c2cc3cnn(CC(F)(F)F)c3cn2)cn1 [Example 20, (R)-2-(6-isopropylpyridin-3-yl)-N-(1-(1-(2,2,2-trifluoroethyl)-1H-pyrazolo[3,4-c]pyridin-5-yl)ethyl)acetamide]
The IC50 of the first is 2-fold lower: 522 nM for the first, 1050 nM for the second. The first is the more potent here.

`C[C@@H](NC(=O)Cc1ccc(C2(C(F)F)CC2)cc1)c1cc2cnn(CC(F)(F)F)c2cn1` [Example 22, (R)-2-(4-(1-(difluoromethyl)cyclopropyl)phenyl)-N-(1-(1-(2,2,2-trifluoroethyl)-1H-pyrazolo[3,4-c]pyridin-5-yl)ethyl)acetamide] and `C[C@@H](NC(=O)Cc1ccc(C2(C#N)CC2)cc1)c1cc2cnn(CC(F)(F)F)c2cn1` [Example 47, (R)-2-(4-(1-cyanocyclopropyl)phenyl)-N-(1-(1-(2,2,2-trifluoroethyl)-1H-pyrazolo[3,4-c]pyridin-5-yl)ethyl)acetamide] are within 1.5-fold of each other in IC50: 194 nM for the first, 220 nM for the second.

Compared with `C[C@@H](NC(=O)Cc1ccc(C2CC2)cc1)c1cc2cnn(-c3ccc(F)cc3)c2cn1` [Example 27, (R)-2-(4-cyclopropylphenyl)-N-(1-(1-(4-fluorophenyl)-1H-Pyrazolo[3,4-c]pyridin-5-yl)ethyl)acetamide], `Cc1nn(C)c2ccc(CC(=O)N[C@H](C)c3cc4cnn(CC(F)(F)F)c4cn3)cc12` [Example 49, (R)-2-(1,3-dimethyl-1H-indazol-5-yl)-N-(1-(1-(2,2,2-trifluoroethyl)-1H-pyrazolo[3,4-c]pyridin-5-yl)ethyl)acetamide] is 2.4-fold lower in IC50: 861 nM for the first, 352 nM for the second. The second is the more potent here.

`C[C@@H](NC(=O)Cc1ccc(C2(C(F)(F)F)CC2)cc1)c1cnc2c(cnn2C)c1` [Example 10, (R)—N-(1-(1-methyl-1H-pyrazolo[3,4-b]pyridin-5-yl)ethyl)-2-(4-(1-(trifluoromethyl)cyclopropyl)phenyl)acetamide] gave an IC50 greater than 10000 nM.
